Columns and labels:
[1] = tested on: barnyardgrass; experiment: Field weed control with ME acetochlor, barnyardgrass; format: in vivo, Echinochloa crus-galli; conditions: fenclorim seed treatment with ME acetochlor
Experimental: (§1) The experiment was conducted under standard small-plot research practices. Diamond rice was planted at 72 seeds m^−1 row. […] Data were analyzed using R and subjected ANOVA. Means were separated using Fisher's LSD (α=0.05).

[2] = tested on: Diamond rice; parameters: species or system Oryza sativa L.; conditions: in vivo
Experimental: The experiment was conducted within a growth chamber at 13.8° C. (night) and 23.8° C. (day) using a 10-hour night and 14-hour day photoperiod. Diamond rice was planted in pots filled to the same weight of soil to maintain 80% soil moisture throughout the experiment. […] Data were analyzed using R and subjected to ANOVA. Means were separated using Fisher's LSD (α=0.05).

[3] = tested on: weedy rice or red rice; experiment: Field weed control with ME acetochlor, weedy rice; format: in vivo, Oryza sativa L. var. sylvatica; conditions: fenclorim seed treatment with ME acetochlor
Experimental: as §1

Q: How did the “effect of the seed treatment on weed control” value [1] turn out when `Clc1cc(Cl)nc(-c2ccccc2)n1` [fenclorim, 4,6-dichloro-2-phenyl-pyrimidine] was run?
A: did not negatively affect weed control

Q: And the Biomass [2]?
A: 99%

Q: What about the Height [2] of the same compound?
A: 13.7 cm

Q: And the Injury [2]?
A: 0%

Q: And the Stand reduction [2]?
A: 3%

Q: And the “effect of the seed treatment on weed control” value [3]?
A: did not negatively affect weed control

Reference: patent US20210092956A1, “Safening Rice Against Group 15 Herbicides” (THE BOARD OF TRUSTEES OF THE UNIVERSITY OF ARKANSAS, priority 2019, published 2021)
